Data: patent EP0970046B1, “N-HYDROXY-2-(ALKYL, ARYL, OR HETEROARYL SULFANYL, SULFINYL OR SULFONYL)-3-SUBSTITUTED ALKYL, ARYL OR HETEROARYLAMIDES AS MATRIX METALLOPROTEINASE INHIBITORS” (Wyeth Holdings Corporation, priority 1997, dated 1998)

Legend:
[1] = target: T1, TACE (Homo sapiens, UniProt P78536); assay: Procedure for Measuring TACE Inhibition; format: biochemical; details: 1 µM
T1 construct: purchased Immunex
Protocol: Using 96-well black microtiter plates, each well receives a solution composed of 10 µL TACE (Immunex, final concentration 1µg/mL), 70µL Tris buffer, pH 7.4 containing 10% glycerol (final concentration 10 mM), and 10 µL of test compound solution in DMSO (final concentration 1µM, DMSO concentration <1%) and incubated for 10 minutes at room temperature. The reaction is initiated by addition of a fluorescent peptidyl substrate (final concentration 100 µM) to each well and then shaking on a shaker for 5 sec. The reaction is read (excitation 340 nm, emission 420 nm) for 10 min. and the increase in fluorescence over time is plotted as a linear line. The slope of the line is calculated and represents the reaction rate. The linearity of the reaction rate is confirmed (r^2 >0.85). The mean (x±sem) of the control rate is calculated and compared for statistical significance (p<0.05) with drug-treated rates using Dunnett's multiple comparison test.

[2] = target: MMP 13 (Homo sapiens, UniProt P45452); assay: MMP 13 inhibition (HTS; method not described); format: biochemical; details: for inhibition at 0.2 µM: read-out: MMP 13 % inhibition at 0.2 µM (HTS); for inhibition at 0.036 µM: read-out: MMP 13 % inhibition at 36 nM (HTS); for MMP 13 % inhibition at 36 nM (HTS) / inhibition at 0.036 µM: 36 nM; for inhibition at 3600 µM: read-out: MMP 13 % inhibition at 3.6 mM (HTS)

T1 sequence (P78536 215-824): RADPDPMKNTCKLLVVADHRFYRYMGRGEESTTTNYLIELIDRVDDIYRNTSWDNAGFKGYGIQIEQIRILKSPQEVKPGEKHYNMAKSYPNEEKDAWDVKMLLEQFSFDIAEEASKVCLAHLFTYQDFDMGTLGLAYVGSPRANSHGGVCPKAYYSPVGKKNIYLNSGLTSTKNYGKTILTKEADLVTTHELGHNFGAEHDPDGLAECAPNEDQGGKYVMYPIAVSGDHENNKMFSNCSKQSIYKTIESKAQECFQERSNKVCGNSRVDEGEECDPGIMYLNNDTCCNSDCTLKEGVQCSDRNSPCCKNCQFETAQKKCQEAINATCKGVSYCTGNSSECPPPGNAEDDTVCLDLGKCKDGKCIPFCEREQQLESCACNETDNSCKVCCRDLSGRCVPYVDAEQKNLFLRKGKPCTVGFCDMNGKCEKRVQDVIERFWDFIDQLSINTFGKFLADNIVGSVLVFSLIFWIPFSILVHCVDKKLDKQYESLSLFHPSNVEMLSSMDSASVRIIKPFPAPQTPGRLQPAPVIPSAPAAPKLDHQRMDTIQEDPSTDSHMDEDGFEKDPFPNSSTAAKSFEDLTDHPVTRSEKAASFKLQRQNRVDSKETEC

## 2,5-Dichloro-thiophene-3-sulfonic acid 4-(1-hydroxycarbamoyl-heptylsulfanyl)-hydroxyamide [Example 233]
[1]; Examples 169-240
  TACE % inhibition at 1 µM: 19.8%
[2]; HTS
  MMP 13 % inhibition at 36 nM (HTS): 33%

## 3-Bromo-2-chloro-thiophene-2-sulfonic acid 4-(1-hydroxycarbamoyl-heptylsulfonyl)-hydroxyamide [Example 239]
[1]; Examples 169-240
  TACE % inhibition at 1 µM: 45.9%
[2]; HTS
  MMP 13 % inhibition at 36 nM (HTS): 54%

## 5-Chloro-1,3-dimethyl-1H-pyrazole-4-sulfonic acid 4-(1-hydroxycarbamoyl-heptylsulfinyl)-hydroxyamide [Example 235]
[1]; Examples 169-240
  TACE % inhibition at 1 µM: 48.3%
[2]; HTS
  MMP 13 % inhibition at 36 nM (HTS): 59%

## CCC(C(=O)NO)S(=O)(=O)C(C)C(=O)NO (centres unmarked) [Example 124, (1-Hydroxycarbamoyl-propane-1-sulfonyl)-propionic acid hydroxyamide]
[2]; HTS
  MMP 13 % inhibition at 0.2 µM (HTS): 0%

## CC(=O)Nc1ccc([S+]([O-])C(Cc2ccccc2)C(=O)NO)cc1 (centres unmarked) [Example 129, 2-(4-Acetylamino-benzenesulfinyl)-N-hydroxy-3-phenyl-propionamide]
[2]; HTS
  inhibition at 0.2 µM: 90%

## COC(=O)CCC(Sc1ccc(SC)cc1)C(=O)NO (centres unmarked) [Example 131, 4-Hydroxycarbamoyl-4-(4-methanesulfanyl-phenylsulfanyl)-butyric acid methyl ester]
[2]; HTS
  inhibition at 0.2 µM: 71%

## O=C(CCC(C(=O)NO)[S+]([O-])c1ccc(Br)cc1)NO (centres unmarked) [Example 135, 4-Hydroxycarbamoyl-4-(4-bromo-benzenesulfinyl)-butyric acid hydroxyamide]
[2]; HTS
  inhibition at 0.2 µM: 79%

## O=C(CCC(C(=O)NO)[S+]([O-])c1ccccc1C(F)(F)F)NO (centres unmarked) [Example 138, 4-Hydroxycarbamoyl-4-(2-trifluoromethyl-benzenesulfinyl)-butyric acid hydroxyamide]
[2]; HTS
  inhibition at 0.2 µM: 20%

## O=C(CCC(C(=O)NO)S(=O)(=O)c1ccccc1C(F)(F)F)NO (centres unmarked) [Example 139, 4-Hydroxycarbamoyl-4-(2-trifluoromethyl-benzenesulfonyl)-butyric acid hydroxyamide]
[2]; HTS
  inhibition at 0.2 µM: 8%

## CCCCCCCCC(Sc1cccc(OC)c1)C(=O)NO (centres unmarked) [Example 140, 2-(3-methoxy-benzenesulfanyl)decanoic acid hydroxamide]
[2]; HTS
  inhibition at 0.2 µM: 29%

## CCCCCCCCC(C(=O)NO)[S+]([O-])c1cccc(OC)c1 (centres unmarked) [Example 141, 2-(3-Methoxy-benzenesulfinyl)decanoic acid hydroxamide]
[2]; HTS
  inhibition at 0.2 µM: 32%

## CCCCCCCCC(C(=O)NO)S(=O)(=O)c1cccc(OC)c1 (centres unmarked) [Example 142, 2-(3-Methoxy-benzenesulfonyl)decanoic acid hydroxamide]
[2]; HTS
  inhibition at 0.2 µM: 69%

## CCCCCCCCC(C(=O)NO)[S+]([O-])c1ccc([S+](C)[O-])cc1 (centres unmarked) [Example 144, 2-(4-methanesulfinyl-benzenesulfinyl)decanoic acid hydroxamide]
[2]; HTS
  inhibition at 0.2 µM: 38%

## CCCCCCCCC(C(=O)NO)S(=O)(=O)c1ccc(S(C)(=O)=O)cc1 (centres unmarked) [Example 145, 2-(4-methanesulfonyl-benzenesulfonyl)decanoic acid hydroxamide]
[2]; HTS
  inhibition at 0.2 µM: 45%

## CSc1ccc(SC(COCc2ccccc2)C(=O)NO)cc1 (centres unmarked) [Example 146, 3-benzyloxy-N-hydroxy-2-(4-methanesulfanyl-benzenesulfanyl)-propionamide]
[2]; HTS
  inhibition at 0.2 µM: 68%

## C[S+]([O-])c1ccc([S+]([O-])C(COCc2ccccc2)C(=O)NO)cc1 (centres unmarked) [Example 147, 3-Benzyloxy-N-hydroxy-2-(4-methanesulfinyl-benzenesulfinyl)-propionamide]
[2]; HTS
  inhibition at 0.2 µM: 73%

## O=C(NO)C(Cc1cnc[nH]1)Sc1ccccc1Br (centres unmarked) [Example 152, 2-(2-bromo-benzenesulfanyl)-N-hydroxy-3-(3H-imidazol-4-yl)-propionamide]
[2]; HTS
  inhibition at 0.2 µM: 9%

## N=C(N)NCCCC(Sc1cccc(F)c1)C(=O)NO (centres unmarked) [Example 155, 2-(3-fluorophenylsulfanyl)-5-guanidino-pentanoic acid hydroxyamide]
[2]; HTS
  inhibition at 0.2 µM: 31%

## N=C(N)NCCCC(Sc1ccccc1Br)C(=O)NO (centres unmarked) [Example 157, 2-(2-Bromosulfanyl)-5-guanidino-pentanoic acid hydroxyamide]
[2]; HTS
  inhibition at 0.2 µM: 19%

## N=C(N)NCCCC(C(=O)NO)[S+]([O-])c1ccccc1Br (centres unmarked) [Example 158, 2-(2-Bromosulfinyl)-5-guanidino-pentanoic acid hydroxyamide]
[2]; HTS
  inhibition at 0.2 µM: 33%

## N=C(N)NCCCC(C(=O)NO)S(=O)(=O)c1ccccc1Br (centres unmarked) [Example 159, 2-(2-Bromosulfonyl)-5-guanidino-pentanoic acid hydroxyamide]
[2]; HTS
  inhibition at 0.2 µM: 49%

## CCCCCCC(Sc1cc(Cl)ccc1Cl)C(=O)NO (centres unmarked) [Example 160, 2-(2,5-dichlorobenzenesulfanyl)-octanoic acid hydroxyamide]
[2]; HTS
  inhibition at 0.2 µM: 14%

## CCCCCCC(Sc1cccc(OC)c1)C(=O)NO (centres unmarked) [Example 162, 2-(3-Methoxybenzenesulfanyl)-ocranoic acid hydroxyamide]
[2]; HTS
  inhibition at 0.2 µM: 13%

## CCCCCCC(C(=O)NO)S(=O)(=O)c1cccc(OC)c1 (centres unmarked) [Example 164, 2-(3-Methoxybenzenesulfonyl)-octanoic acid hydroxyamide]
[2]; HTS
  inhibition at 0.2 µM: 74%

## CCCCCCC(Sc1ccc(OC)c(OC)c1)C(=O)NO (centres unmarked) [Example 165, 2-(3,4-Dimethoxybenzenesulfanyl)-octanoic acid hydroxyamide]
[2]; HTS
  inhibition at 0.2 µM: 71%

## CCCCCCC(Sc1nc2ccccc2[nH]1)C(=O)NO (centres unmarked) [Example 168, 2-(2-Benzimidazol-2-ylsulfanyl)-octanoic acid hydroxyamide]
[2]; HTS
  inhibition at 0.2 µM: 21%

## CCCCCCC(Sc1nc2ccccc2o1)C(=O)NO (centres unmarked) [Example 169, 2-(2-Benzooxazol-2-ylsulfanyl)-octanoic acid hydroxyamide]
[2]; HTS
  inhibition at 0.036 µM: 28%

## CCCCCCC(Sc1nc2ccccc2s1)C(=O)NO (centres unmarked) [Example 170, 2-(2-Benzothiazol-2-ylsulfanyl)-octanoic acid hydroxyamide]
[2]; HTS
  inhibition at 0.036 µM: 32%

## CCCCCCC(SCCc1ccccn1)C(=O)NO (centres unmarked) [Example 173, 2-(2-Pyridin-2-yl-ethylsulfanyl)-octanoic acid hydroxyamide]
[2]; HTS
  inhibition at 0.036 µM: 18%

## CCCCCCC(C(=O)NO)[S+]([O-])c1nc2ccccc2[nH]1 (centres unmarked) [Example 177, 2-(2-Benzimidazol-2-ylsulfinyl)-octanoic acid hydroxyamide]
[2]; HTS
  inhibition at 0.036 µM: 5%

## CCCCCCC(C(=O)NO)[S+]([O-])c1ccccn1 (centres unmarked) [Example 178, 2-(2-Pyridine-2-sulfinyl)-octanoic acid hydroxyamide]
[2]; HTS
  inhibition at 0.036 µM: -10%
[2]
  inhibition at 3600 µM: 39%

## CCCCCCC(C(=O)NO)S(=O)(=O)c1[nH]c2ccccc2[n+]1[O-] (centres unmarked) [Example 181, 2-(3-Oxy-1H-benzimidazole-2-sulfonyl)-octanoic acid hydroxyamide]
[2]; HTS
  inhibition at 0.036 µM: 6%
[2]; read-out: MMP 13 % inhibition at 0.36 mM (HTS)
  inhibition at 360 µM: 35%
[2]
  inhibition at 3600 µM: 62%

## CCCCCCC(C(=O)NO)S(=O)(=O)CCc1cccc[n+]1[O-] (centres unmarked) [Example 183, 2-[2-(1-Oxy-pyridin-2-yl)-ethanesulfonyl]-octanoic acid hydroxyamide]
[2]; HTS
  inhibition at 0.036 µM: -6%

## CCCCCCC(C(=O)NO)[S+]([O-])CC(=O)Nc1ccc2ccccc2c1 (centres unmarked) [Example 191, 2-(Naphthalen-2-ylcarbamoylmethanesulfinyl)-octanoic acid hydroxyamide]
[2]; HTS
  inhibition at 0.036 µM: -45%

## CCCCCCC(C(=O)NO)S(=O)(=O)c1nccs1 (centres unmarked) [Example 195, 2-(Thiazol-2-ylsulfonyl)-octanoic acid hydroxyamide]
[2]; HTS
  inhibition at 0.036 µM: -9%

## CCCCCCC(C(=O)NO)S(=O)(=O)c1cccc2cccnc12 (centres unmarked) [Example 196, 2-(Quinoline-8-sulfonyl)-octanoic acid hydroxyamide]
[2]; read-out: MMP 13 % inhibition (HTS), HTS
  inhibition: 11%
[2]; HTS
  inhibition at 0.036 µM: -18%

## CCCCCCC(C(=O)NO)S(=O)(=O)CC1NC(=O)NC1=O (centres unmarked) [Example 198, 2-(2,5-Dioxo-imidazolidin-4-ylmethylsulfonyl)-octanoic acid hydroxyamide]
[2]; HTS
  inhibition at 0.036 µM: -39%

## CCCCCCC(Sc1ccc(OCc2ccccc2)cc1)C(=O)NO (centres unmarked) [Example 199, 2-(4-Benzyloxy-phenylsulfanyl)-octanoic acid hydroxyamide]
[2]; HTS
  inhibition at 0.036 µM: -10%

## CCCCCCC(Sc1ccc(OS(=O)(=O)c2ccccc2)cc1)C(=O)NO (centres unmarked) [Example 232, Benzenesulfonic acid 4-(1-hydroxycarbamoyl-heptylsulfanyl)-phenyl ester]
[2]; HTS
  inhibition at 0.036 µM: 30%

## CCCCCCC(C(=O)NO)S(=O)(=O)c1ccc(OS(=O)(=O)c2ccccc2[N+](=O)[O-])cc1 (centres unmarked) [Example 238, 2-Nitro-benzenesulfonic acid 4-(1-hydroxycarbamoyl-heptylsulfonyl)-hydroxyamide]
[2]; HTS
  inhibition at 0.036 µM: 22%

## (1-Hydroxycarbamoyl-propane-1-sulfinyl)-propionic acid hydroxyamide [Example 123]
[2]; HTS
  MMP 13 % inhibition at 0.2 µM (HTS): 0%

## (1-Hydroxycarbamoyl-propane-1-sulfonyl)-acetic acid hydroxyamide [Example 120]
[1]; Examples 110-168
  TACE % inhibition at 1 µM: 19.9%

## Ethanesulfonic acid 4(1-hydroxycarbamoyl-heptylsulfanyl)-hydroxyamide [Example 234]
[1]; Examples 169-240
  TACE % inhibition at 1 µM: 18.4%
